Consider five compounds from ChEMBL document CHEMBL1201862, “PubChem BioAssay data set” (2004).

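Test compounds were applied to cells in 96-well plates for 48 hours at 5 doses. Here, GI50 denotes the concentration required for 50% inhibition of growth.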 Active and inactive are the calls of the source. Cut-off read from the data, not from the text of the source: active = GI50 up to about 1.1 µM and inactive = higher.

Some test systems named below: COLO 205; OVCAR-5; SF-539; CAKI-1; NCI-H23; HOP-62; M14; SK-MEL-2; UACC-257; HCT-116; HL-60; OVCAR-4; HCC 2998; HT-29; TK-10; PC-3; MOLT-4; SR; U-251; Hs-578T.
Holding throughout (assay): NCI anticancer screen, dose series, 48 h

For `CO/C=C(/C(=O)OC)c1ccccc1[C@@H]1CC1c1cccc(F)c1` (stereo not given in full), the GI50 with COLO 205 was 15.7 µM (inactive); with OVCAR-5, > 100 µM (inactive); in the assay with SF-539, 28.4 µM (inactive); in the assay on CAKI-1 it was 18.6 µM (inactive); in the assay with NCI-H23, 24.5 µM (inactive); with HOP-62 it was 51.6 µM (inactive). The GI50 is 19.8 µM (inactive) in the assay with M14; 16.9 µM (inactive) in the assay on SK-MEL-2; 19.9 µM (inactive) in the assay with UACC-257; 21.1 µM (inactive) with HCT-116; 18.4 µM (inactive) with HL-60; 20.2 µM (inactive) with OVCAR-4. Moreover, the GI50 is 25 µM (inactive) with HCC 2998; 30.4 µM (inactive) in the assay with HT-29; 37.9 µM (inactive) in the assay with TK-10; 29 µM (inactive) in the assay on PC-3; 29.2 µM (inactive) with MOLT-4; 21.2 µM (inactive) in the assay on SR. Also, the results for the GI50 in the assay on U-251 and in the assay with Hs-578T were 30.5 µM (inactive) and 41.1 µM (inactive), respectively.
For `COC(=O)[C@]12CC[C@H]3CN(C(=O)OCc4ccccc4)[C@H]([C@H]31)[C@H](c1ccco1)N2`, the GI50 is 20.1 µM (inactive) with COLO 205; > 100 µM (inactive) in the assay with OVCAR-5; > 100 µM (inactive) in the assay on SF-539; 35.8 µM (inactive) with CAKI-1; 17.3 µM (inactive) with NCI-H23; 90.2 µM (inactive) with HOP-62. In addition, the GI50 with M14 is 38 µM (inactive); in the assay on SK-MEL-2, 55.1 µM (inactive); with UACC-257, 29.9 µM (inactive); with HCT-116 it was 40.8 µM (inactive); in the assay on HL-60, 28.8 µM (inactive); in the assay on OVCAR-4 it was 0.61 µM (active). Besides, the GI50 in the assay with HCC 2998 was > 100 µM (inactive); with HT-29, 81.3 µM (inactive); with TK-10, > 100 µM (inactive); in the assay with PC-3, 33.2 µM (inactive); in the assay with MOLT-4 it was 19.8 µM (inactive); in the assay with SR, 44.9 µM (inactive). In addition, the GI50 in the assay on U-251 is 84.7 µM (inactive); with Hs-578T it was 42.4 µM (inactive).
As to `O=C1NC(NNc2ccccc2)=N/C1=C\c1ccccc1O`, the GI50 in the assay on COLO 205 was > 100 µM (inactive); with OVCAR-5, > 100 µM (inactive); in the assay with SF-539 it was 77.6 µM (inactive); in the assay on CAKI-1 it was 63.1 µM (inactive); with NCI-H23, 39.1 µM (inactive); with HOP-62, 48.4 µM (inactive). Besides, the GI50 in the assay on M14 was 97.1 µM (inactive); in the assay on SK-MEL-2 it was 75.2 µM (inactive); in the assay with UACC-257, 40.9 µM (inactive); in the assay with HCT-116 it was 48.2 µM (inactive); with HL-60, 28.8 µM (inactive); with OVCAR-4, 50.9 µM (inactive). Also, the GI50 with HCC 2998 was 80.9 µM (inactive); in the assay on HT-29, 61 µM (inactive); in the assay on TK-10 it was 67.3 µM (inactive); in the assay with PC-3, 33.6 µM (inactive); in the assay with MOLT-4, 51.6 µM (inactive); in the assay on SR it was > 100 µM (inactive). For the same compound, the GI50 in the assay on U-251 is 70.5 µM (inactive); with Hs-578T it was > 100 µM (inactive).
Turning to `CCCCCCCCCCCCCCCC(=O)N(CCCCCCCCCCC(=O)O)CC(O)C(O)C(OC1OC(CO)C(O)C(O)C1O)C(O)CO` (stereo not given), the GI50 in the assay with COLO 205 was 18.4 µM (inactive); in the assay on OVCAR-5, > 100 µM (inactive); in the assay with SF-539, 21.3 µM (inactive); in the assay on CAKI-1, 64 µM (inactive); in the assay on NCI-H23 it was 40.9 µM (inactive); in the assay on HOP-62, 23.5 µM (inactive). The GI50 in the assay with M14 is 20.7 µM (inactive); in the assay with SK-MEL-2, 19 µM (inactive); in the assay with UACC-257, 22 µM (inactive); in the assay with HCT-116, 49.2 µM (inactive); in the assay on HL-60 it was 22.6 µM (inactive); with OVCAR-4 it was 60.3 µM (inactive). Also, the GI50 was 21.1 µM (inactive) with HCC 2998; 22.8 µM (inactive) with HT-29; > 100 µM (inactive) in the assay with TK-10; 37.8 µM (inactive) in the assay on PC-3; 28.4 µM (inactive) with MOLT-4; 29.1 µM (inactive) with SR. The GI50 with U-251 was 18 µM (inactive); with Hs-578T, 40.5 µM (inactive).
Consider `FC(F)(F)C1(C(F)(F)F)C2CCC3(CC(F)(F)C(F)(F)S3)C1C2` (stereo not given), for which the GI50 with COLO 205 is 31.5 µM (inactive); in the assay on OVCAR-5 it was 48.6 µM (inactive); in the assay on SF-539, > 100 µM (inactive); with CAKI-1, 98.2 µM (inactive); in the assay on NCI-H23 it was 35.7 µM (inactive); with HOP-62, 48.4 µM (inactive). In addition, the GI50 in the assay on M14 is > 100 µM (inactive); in the assay with SK-MEL-2 it was 22.6 µM (inactive); in the assay with UACC-257, 26.1 µM (inactive); in the assay with HCT-116, 20.2 µM (inactive); in the assay on HL-60, 27.9 µM (inactive); in the assay on OVCAR-4, 80.5 µM (inactive). In addition, the GI50 was > 100 µM (inactive) in the assay on HCC 2998; 29 µM (inactive) in the assay on HT-29; > 100 µM (inactive) in the assay on TK-10; 37.2 µM (inactive) in the assay on PC-3; 23.4 µM (inactive) in the assay on MOLT-4; 21.3 µM (inactive) in the assay with SR. For the same compound, the GI50 with U-251 and in the assay with Hs-578T was > 100 µM (inactive) each time.
